# Tested on: E. coli CFT073
# Test: Irf3−/− mice infected with E. coli CFT073 by intravesical instillation; genetic model of acute pyelonephritis and urosepsis
# Format: in vivo
# Conditions: for bacterial growth in urine: at day 21 and 42; for long term protection against infection and inflammation: daily i.p. treatment for 7 days, follow-up to day 42, FIG. 2; for urine neutrophil numbers: long-term follow-up (day 21 and 42)
# Procedure: Irf3^−/− mice were infected with E. coli CFT073 (50 μl of 2.109 cfu/ml) by intravesical instillation. Intraperitoneal treatment was administered daily, starting 6 hours after infection and for 7 days. Mice were treated with recombinant NIpD protein (105 μg in 100 μl) or IL-1RA (Anakinra, 1 mg/kg, 100 μl). Control mice received PBS. Urine sampling for bacterial and neutrophil counts were done on day 1, 3, 5 and 7 in one group of animals (those sacrificed on day 7), and on day 1, 3, 5, 7, 21 and 42 in others.
# Animals were sacrificed under anesthesia; kidneys and bladders were asceptically removed and in the case of bladders, macroscopic pathology was documented by photography. Tissues were fixed with 4% paraformaldehyde or frozen for sectioning and RNA extraction. Viable counts in homogenized tissues (Stomacher 80, Seward Medical) were determined on TSA (37° C., overnight). Urine samples were collected prior to and at regular times after infection and quantitatively cultured. Neutrophils in uncentrifuged urine were counted, using a hemocytometer.
Molecule,bacterial growth in urine,long term protection against infection and inflammation,urine neutrophil numbers
"IL-1RA: interleukin-1 receptor antagonist (IL-1 RA), anakinra",no bacterial growth in urine,long term protection,low urine neutrophil numbers
"NIpD: recombinant NIpD protein; bacterial protein, e.g. from E. coli 83972; may comprise or consist of SEQ ID NO: 1 (protein, listed as Escherichia coli) MSAGSPKFTVRRIAALSLVSLWLAGCSDTSNPPAPVSSVNGNAPANTNSGMLITPPPKMGTTSTAQQPQIQPVQQPQIQATQQPQIQPMQPVAQQPVQMENGRIVYNRQYGNIPKGSYSGSTYTVKKGDTLFYIAWITGNDFRDLAQRNNIQAPYALNVGQTLQVGNASGTPITGGNAITQADAAEQGVVIKPAQNSTVAVASQPTITYSESSGEQSANKMLPNNKPTATTVTAPVTVPTASTTEPIVSSTSTSTPISTWRWPTEGKVIETFGASEGGNKGIDIAGSKGQAIIATADGRVVYAGNALRGYGNLIIIKHNDDYLSAYAHNDTMLVREQQEVKAGQKIATMGSTGTSSTRLHFEIRYKGKSVNPLRYLPQR",no bacterial growth in urine,long term protection,low urine neutrophil numbers
